Reference: paper PMC10999543, “Identification of kinase modulators as host-directed therapeutics against intracellular methicillin-resistant Staphylococcus aureus” (Frontiers in Cellular and Infection Microbiology, 2024)
Read-outs that look alike come from different tables or passages of the source.

Key:
HeLa cells = test: Compound screen by flow cytometry: HeLa cell count as surrogate readout of cell viability (z-scoreHeLa); format: cell-based, human; details: for cell count rep 1 / z-scoreHeLa rep 1: replicate 1; for cell count rep 2 / z-scoreHeLa rep 2: replicate 2; for cell count rep 3 / z-scoreHeLa rep 3: replicate 3; for z-scoreHeLa mean: mean of 3 replicates
In short: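 HeLa cells were infected with GFP-MRSA (mean MOI 6.8 ± 4.6) for 1 h, and extracellular bacteria were killed with 30 µg/ml gentamicin. Cells were then incubated overnight with kinase inhibitors in 5 µg/ml gentamicin, in triplicate against DMSO controls. Flow-cytometric cell count served as a viability surrogate, expressed as a plate z-score.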

intracellular MRSA = format: cell-based, Staphylococcus aureus; details: for %GFP+ rep 1 / z-scoreMRSA+ rep 1: replicate 1; for %GFP+ rep 2 / z-scoreMRSA+ rep 2: replicate 2; for %GFP+ rep 3 / z-scoreMRSA+ rep 3: replicate 3; for z-scoreMRSA+ mean: mean of 3 replicates
In short: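 HeLa cells infected with GFP-MRSA (MOI ~6.8), gentamicin-cleared, then incubated overnight at 37°C with inhibitors plus 5 µg/ml gentamicin; DMSO as negative control, triplicates. Flow cytometry gave % GFP-positive cells and cell count (viability surrogate); hits by plate z-score (MRSA ≤ -2, HeLa count ≥ -3).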

[1] = PKIS compound screen raw data, HeLa cell count
[2] = PKIS compound screen, HeLa cell count
[3] = PKIS compound screen, Yes/No call on z-scoreHeLa
[4] = PKIS compound screen raw data, MRSA-infected HeLa cells
[5] = PKIS compound screen, MRSA-infected HeLa cells
[6] = PKIS compound screen, Yes/No call (effect without cell death)
[7] = PKIS compound screen, Yes/No call on z-scoreMRSA+
[8] = PKIS compound screen, Yes/No call
[9] = PKIS compounds raw data, HeLa cell count
[10] = PKIS compounds raw data, MRSA-infected HeLa cells
[11] = compound screen, HeLa cell count
[12] = compound screen, MRSA-infected HeLa cells

| SMILES | cell count rep 1 (HeLa cells; [1]) | cell count rep 2 (HeLa cells; [1]) | cell count rep 3 (HeLa cells; [1]) | z-scoreHeLa mean (HeLa cells; [2]) | z-scoreHeLa rep 1 (HeLa cells; [2]) | z-scoreHeLa rep 2 (HeLa cells; [2]) | z-scoreHeLa rep 3 (HeLa cells; [2]) | cell death (HeLa cells; [3]) | %GFP+ rep 1 (intracellular MRSA; [4]) [%] | %GFP+ rep 2 (intracellular MRSA; [4]) [%] | %GFP+ rep 3 (intracellular MRSA; [4]) [%] | z-scoreMRSA+ mean (intracellular MRSA; [5]) | z-scoreMRSA+ rep 1 (intracellular MRSA; [5]) | z-scoreMRSA+ rep 2 (intracellular MRSA; [5]) | z-scoreMRSA+ rep 3 (intracellular MRSA; [5]) | hit (intracellular MRSA; [6]) | effect (intracellular MRSA; [7]) | cell death (HeLa cells; [8]) | z-scoreHeLa mean (HeLa cells; PKIS compound screen) | z-scoreHeLa rep 1 (HeLa cells; PKIS compound screen) | further results |
| --- | --- | --- | --- | --- | --- | --- | --- | --- | --- | --- | --- | --- | --- | --- | --- | --- | --- | --- | --- | --- | --- |
| COc1ccc(Nc2nccc(N3CCC(NC(=O)c4cc5ccccc5s4)C3)n2)cc1 (stereo not shown) [GSK1379738A] | 35022 | 33049 | 42431 | 0.75 | 2.26 | -0.32 | 0.30 | No | 23.4 | 24.0 | 25.7 | 1.73 | 1.76 | 1.65 | 1.80 | No | No | – | – | – | – |
| COc1ccc(Nc2nccc(N3CCC(NC(=O)Nc4cccc(OC)c4)C3)n2)cc1 (stereo not shown) [GSK1379742A] | 25651 | 33132 | 39377 | 0.12 | 0.84 | -0.31 | -0.18 | No | 17.9 | 19.2 | 19.1 | 0.00235 | 0.0133 | 0.20 | -0.21 | No | No | No | 1.53 | 1.56 | z-scoreHeLa rep 2 (HeLa cells; PKIS compound screen): 0.68; z-scoreHeLa rep 3 (HeLa cells; PKIS compound screen): 2.36; cell count rep 1 (HeLa cells; [9]): 8641; cell count rep 2 (HeLa cells; [9]): 7027; cell count rep 3 (HeLa cells; [9]): 9326; effect (intracellular MRSA; [8]): No; z-scoreMRSA+ mean (intracellular MRSA; PKIS compound screen): 0.33; z-scoreMRSA+ rep 1 (intracellular MRSA; PKIS compound screen): -0.05; z-scoreMRSA+ rep 2 (intracellular MRSA; PKIS compound screen): 0.88; z-scoreMRSA+ rep 3 (intracellular MRSA; PKIS compound screen): 0.15; %GFP+ rep 1 (intracellular MRSA; [10]): 26.8%; %GFP+ rep 2 (intracellular MRSA; [10]): 30.6%; %GFP+ rep 3 (intracellular MRSA; [10]): 28.1% |
| COC(=O)c1cccc(NC(=O)NC2CCN(c3ccnc(Nc4ccc(OC)cc4)n3)C2)c1 (stereo not shown) [GSK1379746A] | 24857 | 18367 | 14326 | -0.99 | -0.90 | -1.18 | -0.90 | No | 19.0 | 17.4 | 21.2 | -0.17 | 0.06 | -0.55 | -0.01 | No | No | No | -0.86 | -1.12 | z-scoreHeLa rep 2 (HeLa cells; PKIS compound screen): -1.01; z-scoreHeLa rep 3 (HeLa cells; PKIS compound screen): -0.44; cell count rep 1 (HeLa cells; [9]): 4181; cell count rep 2 (HeLa cells; [9]): 4486; cell count rep 3 (HeLa cells; [9]): 4898; effect (intracellular MRSA; [8]): No; z-scoreMRSA+ mean (intracellular MRSA; PKIS compound screen): -0.13; z-scoreMRSA+ rep 1 (intracellular MRSA; PKIS compound screen): -0.05; z-scoreMRSA+ rep 2 (intracellular MRSA; PKIS compound screen): -0.0265; z-scoreMRSA+ rep 3 (intracellular MRSA; PKIS compound screen): -0.31; %GFP+ rep 1 (intracellular MRSA; [10]): 26.8%; %GFP+ rep 2 (intracellular MRSA; [10]): 25.9%; %GFP+ rep 3 (intracellular MRSA; [10]): 25.6% |
| COc1ccc(CNC(=O)NC2CCN(c3ccnc(Nc4cc(OC)c(OC)c(OC)c4)n3)C2)cc1 (stereo not shown) [GSK1379748A] | 5560 | 4556 | 5664 | – | – | – | – | – | 25.5 | 23.4 | 23.0 | – | – | – | – | – | – | – | – | – | cell death (HeLa cells; Yes/No call from z-scoreHeLa): No; z-scoreHeLa mean (HeLa cells; [11]): 0.45; z-scoreHeLa rep 1 (HeLa cells; [11]): 0.87; z-scoreHeLa rep 2 (HeLa cells; [11]): 0.20; z-scoreHeLa rep 3 (HeLa cells; [11]): 0.27; effect (intracellular MRSA; Yes/No call from z-scoreMRSA+): No; hit (intracellular MRSA; Yes/No: effect without cell death): No; z-scoreMRSA+ mean (intracellular MRSA; [12]): 0.16; z-scoreMRSA+ rep 1 (intracellular MRSA; [12]): 0.05; z-scoreMRSA+ rep 2 (intracellular MRSA; [12]): 0.19; z-scoreMRSA+ rep 3 (intracellular MRSA; [12]): 0.24 |
| COc1cc(Nc2nccc(N3CCC(NC(=O)Nc4cccc(C(C)=O)c4)C3)n2)cc(OC)c1OC (stereo not shown) [GSK1379753A] | 28035 | 28667 | 17453 | -0.0237 | -0.37 | 0.58 | -0.29 | No | 19.3 | 19.5 | 18.4 | -0.20 | 0.14 | 0.025 | -0.77 | No | No | – | – | – | – |
| COc1cc(Nc2nccc(N3CCC(NC(=O)C(C)c4ccc(Cl)cc4)C3)n2)cc(OC)c1OC (stereo not shown) [GSK1379757A] | 34106 | 27085 | 22729 | 0.57 | 0.66 | 0.31 | 0.74 | No | 24.2 | 23.0 | 24.9 | 1.14 | 1.45 | 0.98 | 1.00 | No | No | No | 0.21 | 0.06 | z-scoreHeLa rep 2 (HeLa cells; PKIS compound screen): 0.29; z-scoreHeLa rep 3 (HeLa cells; PKIS compound screen): 0.29; cell count rep 1 (HeLa cells; [9]): 6143; cell count rep 2 (HeLa cells; [9]): 6440; cell count rep 3 (HeLa cells; [9]): 6051; effect (intracellular MRSA; [8]): No; z-scoreMRSA+ mean (intracellular MRSA; PKIS compound screen): 0.73; z-scoreMRSA+ rep 1 (intracellular MRSA; PKIS compound screen): 0.77; z-scoreMRSA+ rep 2 (intracellular MRSA; PKIS compound screen): 0.76; z-scoreMRSA+ rep 3 (intracellular MRSA; PKIS compound screen): 0.65; %GFP+ rep 1 (intracellular MRSA; [10]): 31.0%; %GFP+ rep 2 (intracellular MRSA; [10]): 30.0%; %GFP+ rep 3 (intracellular MRSA; [10]): 30.8% |
| COc1cc(Nc2nccc(N3CCC(NC(=O)c4cc5ccccc5s4)C3)n2)cc(OC)c1OC (stereo not shown) [GSK1379760A] | 31010 | 36298 | 43524 | 0.80 | 1.65 | 0.28 | 0.48 | No | 16.3 | 17.7 | 19.1 | -0.32 | -0.49 | -0.25 | -0.21 | No | No | – | – | – | – |
| COc1cccc(NC(=O)NC2CCN(c3ccnc(Nc4cc(OC)c(OC)c(OC)c4)n3)C2)c1 (stereo not shown) [GSK1379763A] | 25281 | 24740 | 24420 | 0.05 | -0.83 | -0.09 | 1.07 | No | 13.0 | 15.3 | 16.3 | -1.34 | -1.54 | -1.12 | -1.35 | No | No | – | – | – | – |
